Structures can show the parent of a compound that is named as a salt. Where two headings read alike, the source gives them in different places.
Key:
Aqueous solubility = format: physicochemical; conditions: for solubility: aqueous
[1] = pH 7, aqueous buffer, pH 7, read-out: Aqueous solubility at pH 7

**Q.** For `COCC1(OP(=O)(O)O)CCN(c2c(F)cc(N3C[C@H](CNC(C)=O)OC3=O)cc2F)CC1` [Example 3, Phosphoric acid mono-(1-{4-[(S)-5-(acetylamino-methyl)-2-oxo-oxazolidin-3-yl]-2,6-difluorophenyl}-4-methoxymethyl-piperidin-4-yl)ester], which solubility (Aqueous solubility; pH not stated, read-out: Aqueous solubility) is on record?
**A.** > 200 mg/mL

**Q.** What about the melting point of the same compound?
**A.** > 140 °C

**Q.** Which “Aqueous solubility at pH 7” value (Aqueous solubility; pH 7, di sodium salt) does the source give for `COCC1(OP(=O)(O)O)CCN(c2c(F)cc(N3C[C@H](CNC(C)=O)OC3=O)cc2F)CC1` [Example 4, Phosphoric acid mono-(1-{4-[(S)-5-(acetylamino-methyl)-2-oxo-oxazolidin-3-yl]-2,6-difluoro-phenyl}-4-methoxymethyl-piperidin-4-yl)ester di sodium salt] here?
**A.** > 200 mg/ml

**Q.** For `COCC1(OP(=O)(O)O)CCN(c2c(F)cc(N3C[C@H](CNC(C)=O)OC3=O)cc2F)CC1` [Example 5, Phosphoric acid mono-(1-{4-[(S)-5-(acetylamino-methyl)-2-oxo-oxazolidin-3-yl]-2,6-difluoro-phenyl}-4-methoxymethyl-piperidin-4-yl)ester di potassium salt], which “Aqueous solubility at pH 7” value (Aqueous solubility; pH 7, di potassium salt) is on record?
**A.** > 200 mg/ml

**Q.** With `COCC1(OP(=O)(O)O)CCN(c2c(F)cc(N3C[C@H](CNC(C)=O)OC3=O)cc2F)CC1` [Example 6, Phosphoric acid mono-(1-{4-[(S)-5-(acetylamino-methyl)-2-oxo-oxazolidin-3-yl]-2,6-difluoro-phenyl}-4-methoxymethyl-piperidin-4-yl)ester magnesium salt] as the compound, how does the “Aqueous solubility at pH 7” value (Aqueous solubility; pH 7) read?
**A.** ~2 mg/ml

**Q.** With `COCC1(OP(=O)([O-])[O-])CCN(c2c(F)cc(N3C[C@H](CNC(C)=O)OC3=O)cc2F)CC1.[Ca+2]` [Example 7, Phosphoric acid mono-(1-{4-[(S)-5-(acetylamino-methyl)-2-oxo-oxazolidin-3-yl]-2,6-difluoro-phenyl}-4-methoxymethyl-piperidin-4-yl)ester calcium salt] as the compound, how does the solubility (Aqueous solubility; [1]) read?
**A.** ~0.5 mg/mL

**Q.** Which solubility (Aqueous solubility; [1]) does the source give for `COCC1(OC(=O)CN)CCN(c2c(F)cc(N3C[C@H](CNC(C)=O)OC3=O)cc2F)CC1.Cl` [Example 11, 2-Amino-acetic acid 1-{4-[(S)-5-(acetylamino-methyl)-2-oxo-oxazolidin-3-yl]-2,6-difluorophenyl}-4-methoxymethyl-piperidin-4-yl ester hydrochloride salt] here?
**A.** > 100 mg/mL

**Q.** Which “Aqueous solubility at pH 7” value (Aqueous solubility; pH 7) does the source give for `COCC1(OC(=O)CN)CCN(c2c(F)cc(N3C[C@H](CNC(C)=O)OC3=O)cc2F)CC1.O=C(O)C(F)(F)F` [Example 12, 2-Amino-acetic acid 1-{4-[(S)-5-(acetylamino-methyl)-2-oxo-oxazolidin-3-yl]-2,6-difluorophenyl}-4-methoxymethyl-piperidin-4-yl ester triflouroacetic acid salt] here?
**A.** > 100 mg/ml

**Q.** For `COCC1(C(=O)[C@H](C)NC(=O)OC(C)(C)C)CCN(c2c(F)cc(N3C[C@H](CNC(C)=O)OC3=O)cc2F)CC1` [Example 13, (S)—N-{3-[3,5-difluoro-4-(4-(S)-2-tert-butoxycarbonylamino-propionyl-4-methoxymethyl-piperidine-1-yl)phenyl]-2-oxo-oxazolidin-5-ylmethyl}-acetamide], which “Aqueous solubility at pH 7” value (Aqueous solubility; pH 7) is on record?
**A.** > 100 mg/ml

**Q.** For `COCC1(OC(=O)C(C)N)CCN(c2c(F)cc(N3C[C@H](CNC(C)=O)OC3=O)cc2F)CC1.Cl` (stereo partly drawn) [Example 14, 2-Amino-propionic acid 1-{4-[(S)-5-(acetylamino-methyl)-2-oxo-oxazolidin-3-yl]-2,6-difluorophenyl}-4-methoxymethyl-piperidin-4-yl ester hydrochloride salt], which solubility (Aqueous solubility; [1]) is on record?
**A.** > 100 mg/mL

**Q.** With `COCC1(OC(=O)C(C)N)CCN(c2c(F)cc(N3C[C@H](CNC(C)=O)OC3=O)cc2F)CC1.O=C(O)C(F)(F)F` (stereo partly drawn) [Example 15, 2-Amino-propionic acid 1-{4-[(S)-5-(acetylamino-methyl)-2-oxo-oxazolidin-3-yl]-2,6-difluorophenyl}-4-methoxymethyl-piperidin-4-yl ester triflouroacetic acid salt] as the compound, how does the “Aqueous solubility at pH 7” value (Aqueous solubility; pH 7) read?
**A.** > 100 mg/ml

**Q.** With `COCC1(C(=O)[C@@H](NC(=O)OCc2ccccc2)C(C)C)CCN(c2c(F)cc(N3C[C@H](CNC(C)=O)OC3=O)cc2F)CC1` [Example 16, (S)—N-{3-[3,5-Difluoro-4-(4-(S)-2-carbobenzyloxyamino-3,3-dimethylpropionyl-4-methoxymethyl-piperidine-1-yl)phenyl]-2-oxo-oxazolidin-5-ylmethyl}-acetamide] as the compound, how does the “Aqueous solubility at pH 7” value (Aqueous solubility; pH 7) read?
**A.** > 100 mg/ml

**Q.** For `COCC1(OC(=O)C(N)C(C)C)CCN(c2c(F)cc(N3C[C@H](CNC(C)=O)OC3=O)cc2F)CC1.CS(=O)(=O)O` (stereo partly drawn) [Example 17, 2-Amino-3,3-dimethylpropionic acid 1-{4-[(S)-5-(acetylamino-methyl)-2-oxo-oxazolidin-3-yl]-2,6-difluorophenyl}-4-methoxymethyl-piperidin-4-yl ester methane sulfonic acid salt], which solubility (Aqueous solubility; pH 7, aqueous buffer, read-out: Aqueous solubility at pH 7) is on record?
**A.** > 100 mg/mL

Reference: patent publication US8288416B2, “Substituted piperidinophenyl oxazolidinones” (Wockhardt Ltd., priority 2006, dated 2012)
